The source made the active and inactive calls.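 Rule for the calls: active = fitted half-maximal concentration for change in GFP expression of 33 µM or less; inactive = the rest.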

The assay can be described thus: concentration-dependent AGP1-GFP change, TOR pathway – cell-based, flow cytometry, S. cerevisiae, MLPCN hits, dose response (AID 2743). The conditions noted are these: S. cerevisiae AGP1-GFP strain, flow cytometry GFP, 3 h; at 33 µM (top of the series). (In general: Flow cytometry measures light scatter and fluorescence of single cells or particles in a stream.)
Consider `Cc1ccc2c(c1)c(/C=C/c1cc[n+](C)cc1)c(C)n2C`, for which the GFP fluorescence (kMESF) was 48.2 kMESF (inactive).

In the case of `COc1ccc(C(=O)NC(=S)NNC(=O)CCc2ccccc2)cc1`, the GFP fluorescence (kMESF) is 37.5 kMESF (inactive).

Regarding `Cc1cccc(OCCN2CSC(=S)N(C)C2)c1`, the GFP fluorescence (kMESF) was 46.6 kMESF (inactive).

In the case of `COc1ccc2c(c1)S/C(=C\C(=O)c1ccncc1)N2C`, the GFP fluorescence (kMESF) is 17.8 kMESF (inactive).

As for `COc1cc(/C=C2/C(=O)ON=C2c2ccccc2)ccc1O`, the GFP fluorescence (kMESF) was 25 kMESF (inactive).

On to `Oc1ccc2ccccc2c1N=Nc1nccs1`, for which the GFP fluorescence (kMESF) was 43.4 kMESF (inactive).

For `CCOC(=O)c1cc(-c2ccc(/C=C3/C(=O)NC(=O)C(C#N)=C3C)o2)ccc1Cl`, the GFP fluorescence (kMESF) is 28.2 kMESF (inactive).

Take `C[C@@]12C(=O)OC(=O)[C@]1(C)C1CCC2O1`: the GFP fluorescence (kMESF) was 32.6 kMESF (inactive).

Regarding `CC(=O)CSc1ncnc2c1cnn2-c1ccccc1`, the GFP fluorescence (kMESF) is 38.5 kMESF (inactive).

Take `Cc1ccc(O)c(N=Nc2nccs2)c1`: the GFP fluorescence (kMESF) was 30.4 kMESF (inactive).

Turning to `CCc1sc(C(=O)Nc2nc(-c3ccccn3)cs2)cc1C`, the GFP fluorescence (kMESF) was 27.9 kMESF (inactive).

As to `CC(C)(C)n1nc(-c2ccc(Cl)cc2)c2c(N)ncnc21`, the GFP fluorescence (kMESF) was 39.9 kMESF (inactive).

As to `COc1ccc(C(=O)NNC(=S)NC(=O)/C=C/c2cccs2)cc1`, the GFP fluorescence (kMESF) was 52.8 kMESF (inactive).

In the case of `O=C1NC(=S)NC(=O)C1=Cc1ccc2c(c1)CCN2CCCCl`, the GFP fluorescence (kMESF) is 35 kMESF (inactive).

Consider `O=C(CS(=O)c1ccccc1[N+](=O)[O-])Oc1ccc(Br)cc1` (stereo not given), for which the GFP fluorescence (kMESF) was 42.8 kMESF (inactive).

For `COc1cc(/C=C/c2ccc3c(Br)cc(Br)c(O)c3n2)ccc1O`, the GFP fluorescence (kMESF) is 27.7 kMESF (inactive).

Take `O=C(c1ccc(C(=O)N2CCCc3ccccc32)s1)N1CCCc2ccccc21`: the GFP fluorescence (kMESF) is 38.6 kMESF (inactive).

As to `COc1ccc(C(c2c(C)[nH]n(C(N)=S)c2=O)C(C#N)C#N)cc1` (stereo not given), the GFP fluorescence (kMESF) is 44.2 kMESF (inactive).

In the case of `Cc1[nH]n(-c2ccccc2)c(=O)c1C(c1ccccc1[N+](=O)[O-])C(C#N)C#N` (stereo not given), the GFP fluorescence (kMESF) is 36.6 kMESF (inactive).

As to `CCOC(=O)c1c(C)oc2c1c(C(c1ccncc1)N1CCOCC1)c(O)c1ccccc12` (stereo not given), the GFP fluorescence (kMESF) is 21.4 kMESF (inactive).

Consider `O=C(Nc1nnc(-c2ccc(F)cc2)o1)c1cc(Cl)sc1Cl`, for which the GFP fluorescence (kMESF) is 40.6 kMESF (inactive).

In the case of `CCN(CC)c1ccc2cc(-c3nc4ccccc4[nH]3)c(=O)oc2c1`, the GFP fluorescence (kMESF) is 48.4 kMESF (inactive).

Consider `Cc1ccccc1OCCOC(=O)c1ccc(S(=O)(=O)N2CCCC2)cc1`, for which the GFP fluorescence (kMESF) is 38.1 kMESF (inactive).

For `O=C(Nc1nc(-c2ccccn2)cs1)C1COc2ccccc2O1` (stereo not given), the GFP fluorescence (kMESF) was 26.3 kMESF (inactive).

Take `Cc1cc(/C=C2/SC(=S)N(c3cccc(Cl)c3)C2=O)c(C)n1-c1cccnc1`: the GFP fluorescence (kMESF) is 46.4 kMESF (inactive).

For the compound `CN(c1ccccc1)c1ccc(/C=c2\s/c(=C(/C#N)C(=O)C(C)(C)C)n(Cc3ccco3)c2=O)cc1`, the GFP fluorescence (kMESF) is 38 kMESF (inactive).

`O=C1C=CC(=O)N1c1ccc(N2CCCCC2)cc1`: the GFP fluorescence (kMESF) was 46.9 kMESF (inactive).

As to `O=C1C2C3C=CC(CO)(O3)C2C(=O)N1c1ccccc1-c1ccccc1` (stereo not given), the GFP fluorescence (kMESF) was 36.3 kMESF (inactive).

With `COc1ccc(N=Nc2ccc(O)c3ncccc23)cc1`, the GFP fluorescence (kMESF) is 40.8 kMESF (inactive).

In the case of `CC(Oc1cc2oc(=O)c3c(c2cc1Cl)CCC3)C(=O)NCCN1CCOCC1` (stereo not given), the GFP fluorescence (kMESF) is 34.8 kMESF (inactive).

Turning to `O=C(/C=C/c1ccccc1Cl)c1ccccc(=O)c1O`, the GFP fluorescence (kMESF) is 6.58 kMESF (inactive).

As for `Nc1ccc(Br)c2c1C(=O)c1ccccc1C2=O`, the GFP fluorescence (kMESF) was 27.1 kMESF (inactive).

In the case of `COc1ccccc1N1C(=O)c2cccc3c(C(=O)O)ccc(c23)C1=O`, the GFP fluorescence (kMESF) was 49 kMESF (inactive).

Turning to `Cc1cccc(N=C2NC(=O)/C(=C/C=C/c3ccco3)S2)c1C`, the GFP fluorescence (kMESF) is 23.3 kMESF (inactive).

As to `Cc1cccc(/C=C/C(=O)c2ccc([N+](=O)[O-])o2)c1`, the GFP fluorescence (kMESF) was 19.2 kMESF (inactive).

Take `Cc1ccc(C(c2cc(Cl)c3cccnc3c2O)N2CCN(C)CC2)cc1` (stereo not given): the GFP fluorescence (kMESF) was 27.9 kMESF (inactive).

Take `CC(=O)N(C1=C(Cl)C(=O)c2ccccc2C1=O)C1CCCCC1`: the GFP fluorescence (kMESF) was -0.34 kMESF (inactive).

As to `Cc1ccc(C2=NN(S(C)(=O)=O)C(c3ccc4c(c3)OCO4)C2)cc1` (stereo not given), the GFP fluorescence (kMESF) was 44.1 kMESF (inactive).

With `CCN(CC)C(=S)SSC(=S)N(CC)CC`, the GFP fluorescence (kMESF) is 37.5 kMESF (inactive).

`O=C1C(Cl)=C(N2CCN(Cc3ccccc3)CC2)C(=O)N1c1ccccc1`: the GFP fluorescence (kMESF) was 43.8 kMESF (inactive).

As for `CCOc1ccc(N2C(=O)C(Cl)=C(Nc3ccccc3O)C2=O)cc1`, the GFP fluorescence (kMESF) was 43.1 kMESF (inactive).

Take `O=C1C=CC(=O)N1c1ccc(OC(F)F)cc1`: the GFP fluorescence (kMESF) is 27.8 kMESF (inactive).

Turning to `COc1cccc2c(=O)c(C(=O)NCc3cccs3)c[nH]c12`, the GFP fluorescence (kMESF) was 35.4 kMESF (inactive).

For the compound `Nc1ccc2ccc3cccc[n+]3c2c1`, the GFP fluorescence (kMESF) is 42.9 kMESF (inactive).

In the case of `Cc1ccc(/C=C2/SC(=S)N(C3CCCCC3)C2=O)o1`, the GFP fluorescence (kMESF) was 41.3 kMESF (inactive).

In the case of `COc1ccc(N=Cc2nc(-c3ccccc3)oc2OC(C)=O)cc1`, the GFP fluorescence (kMESF) is 35 kMESF (inactive).

Turning to `CC(C)(C)C(=O)NC(=S)NNC(=O)c1ccc(-c2ccccc2)cc1`, the GFP fluorescence (kMESF) is 44.1 kMESF (inactive).

Take `Cc1ccc(/C=C/C(=O)c2ccc([N+](=O)[O-])o2)cc1`: the GFP fluorescence (kMESF) was 42.9 kMESF (inactive).

Regarding `Cc1ccnc(N2C(=O)c3cccc4c([N+](=O)[O-])ccc(c34)C2=O)c1`, the GFP fluorescence (kMESF) was 54.7 kMESF (inactive).

As to `O=C1C=C(c2ccc(Cl)cc2)C(=O)N1Nc1ccccc1`, the GFP fluorescence (kMESF) was 24.4 kMESF (inactive).

Regarding `O=S(=O)(c1ccccc1)c1ccc(C(F)(F)F)cn1`, the GFP fluorescence (kMESF) is 43.8 kMESF (inactive).

Take `C[C@@H]1C[C@@H]([C@H](O)CC2CC(=O)NC(=O)C2)C(=O)[C@@H](C)C1`: the GFP fluorescence (kMESF) was 26.8 kMESF (inactive).

With `COc1ccccc1C(=O)NNC(=S)NC(=O)c1ccco1`, the GFP fluorescence (kMESF) is 38.7 kMESF (inactive).

Take `O=C(O)c1ccc2c(c1)C(=O)/C(=C/c1ccccc1)C2=O`: the GFP fluorescence (kMESF) is 40.5 kMESF (inactive).

On to `CCN1/C(=C/C=C/c2sc3ccccc3[n+]2CC)Sc2ccccc21`, for which the GFP fluorescence (kMESF) is 70 kMESF (inactive).

As to `C=CCOc1ccc(C(=O)/C=C2/C(=O)Nc3ccccc32)cc1`, the GFP fluorescence (kMESF) was 46.5 kMESF (inactive).

For `COc1cc(/C=C2\C(=O)ON=C2c2ccccc2)cc(OC)c1OC`, the GFP fluorescence (kMESF) was 32.3 kMESF (inactive).

Turning to `O=C(O)C1Sc2[nH]c(=O)sc2C2c3cc(Br)ccc3OC(=O)C12` (stereo not given), the GFP fluorescence (kMESF) was 38.7 kMESF (inactive).

For `CCCOc1ccc(C(=O)NNC(=S)NC(=O)c2ccccc2)cc1`, the GFP fluorescence (kMESF) was 45.1 kMESF (inactive).

`N/C(Cc1ccc(Cl)cc1Cl)=N\OC(=O)c1cccs1`: the GFP fluorescence (kMESF) is 27.9 kMESF (inactive).

For `O=C(Nc1ccccc1)ON=C1CCCC1`, the GFP fluorescence (kMESF) is 21.6 kMESF (inactive).

As for `O=C(OCn1ncc(Br)c(Br)c1=O)c1c(F)cccc1F`, the GFP fluorescence (kMESF) was 42.7 kMESF (inactive).

Turning to `COc1ccc(/C=C/C(=O)c2cc(Br)ccc(=O)c2O)cc1`, the GFP fluorescence (kMESF) is -39.3 kMESF (inactive).

For `CCN(CC)c1ccc2cc(-c3nc(-c4ccc(OC)cc4)cs3)c(=O)oc2c1`, the GFP fluorescence (kMESF) was 40.6 kMESF (inactive).

As to `CCc1ccc(/C=C/C(=O)c2cc(Br)ccc(=O)c2O)cc1`, the GFP fluorescence (kMESF) is 22.2 kMESF (inactive).

Turning to `C#CCOCCOCCOCCNc1nc(N2CCN(C(=O)CCCCCCCCCCNC(=O)[C@H](CCCCN)n3cc(CCO)nn3)CC2)nc(N2CCN(C(=O)CCCCCCCCCCNC(=O)[C@H](CCCN=C(N)N)n3cc(C[C@@H](C)CC)nn3)CC2)n1`, the GFP fluorescence (kMESF) is 45.1 kMESF (inactive).

With `Cc1ccc(S(=O)(=O)c2ccc([N+](=O)[O-])cn2)cc1`, the GFP fluorescence (kMESF) was 40.7 kMESF (inactive).

Take `O=C1NC(=O)C(=Cc2ccc(-c3ccc(Cl)cc3)o2)C(=O)N1`: the GFP fluorescence (kMESF) was 22.3 kMESF (inactive).

On to `O=C1c2cccc3c([N+](=O)[O-])ccc(c23)C(=O)N1c1ccccn1`, for which the GFP fluorescence (kMESF) was 35.2 kMESF (inactive).

As to `CCC(=O)Oc1oc(-c2ccccc2)nc1C=Nc1ccc(C)cc1`, the GFP fluorescence (kMESF) is 41.9 kMESF (inactive).

`COc1cc(/C=C2\C(=O)N(CCC#N)N=C2C)c(Br)cc1OC(C)C`: the GFP fluorescence (kMESF) was 43.5 kMESF (inactive).

For the compound `CCOC(=O)c1ccc(N=Cc2nc(-c3ccccc3)oc2OC(C)=O)cc1`, the GFP fluorescence (kMESF) was 33.5 kMESF (inactive).

With `CCc1nc2ccccc2c(=O)n1NC(=O)c1c(O)c2ccccc2n(CC)c1=O`, the GFP fluorescence (kMESF) was 18.7 kMESF (inactive).

In the case of `Oc1c(Br)cc(Br)cc1C=Nc1ccc2c(c1)OCO2`, the GFP fluorescence (kMESF) is 42.9 kMESF (inactive).

Take `COc1ccccc1[C@@]1(C)ON(c2ccccc2C(F)(F)F)C1=O`: the GFP fluorescence (kMESF) was 30.9 kMESF (inactive).

Turning to `O=C(O)c1ccn2c(C(=O)c3ccccc3)c(-c3ccccc3)cc2c1`, the GFP fluorescence (kMESF) was 37.7 kMESF (inactive).

In the case of `CCn1c(/C=C/c2ccc([N+](=O)[O-])o2)nc2ccccc2c1=O`, the GFP fluorescence (kMESF) is -51 kMESF (inactive).

Take `O=[N+]([O-])c1cc(CN2CCN(c3cccc(C(F)(F)F)c3)CC2)c2cccnc2c1O`: the GFP fluorescence (kMESF) is 32.2 kMESF (inactive).

Take `O=C(/C=C/c1cccc([N+](=O)[O-])c1)c1ccc([N+](=O)[O-])o1`: the GFP fluorescence (kMESF) was 10.4 kMESF (inactive).

In the case of `O=C(CSC1=NS(=O)(=O)c2ccccc21)Nc1ccccc1`, the GFP fluorescence (kMESF) was 27.1 kMESF (inactive).

Source of the values: PubChem BioAssay AID2743 (NMMLSC, 2010).
